We go through twelve compounds from patent publication US20260216347A1, “Substituted Imidazo-Based Compounds as Ligand Directed Degraders of IRAK3” (Celgene Corporation, priority 2022, published 2026).

For orientation: pIC50 means −log10 of the IC50, conventionally taken in molar units. Higher therefore signals a low IC50.

The target in assay [1] is T1, IRAK3 (Homo sapiens, UniProt Q9Y616).
T1 construct: IRAK Endogenous HTRF Degradation Assay; endogenous in cells
T1 sequence (Q9Y616 1-596): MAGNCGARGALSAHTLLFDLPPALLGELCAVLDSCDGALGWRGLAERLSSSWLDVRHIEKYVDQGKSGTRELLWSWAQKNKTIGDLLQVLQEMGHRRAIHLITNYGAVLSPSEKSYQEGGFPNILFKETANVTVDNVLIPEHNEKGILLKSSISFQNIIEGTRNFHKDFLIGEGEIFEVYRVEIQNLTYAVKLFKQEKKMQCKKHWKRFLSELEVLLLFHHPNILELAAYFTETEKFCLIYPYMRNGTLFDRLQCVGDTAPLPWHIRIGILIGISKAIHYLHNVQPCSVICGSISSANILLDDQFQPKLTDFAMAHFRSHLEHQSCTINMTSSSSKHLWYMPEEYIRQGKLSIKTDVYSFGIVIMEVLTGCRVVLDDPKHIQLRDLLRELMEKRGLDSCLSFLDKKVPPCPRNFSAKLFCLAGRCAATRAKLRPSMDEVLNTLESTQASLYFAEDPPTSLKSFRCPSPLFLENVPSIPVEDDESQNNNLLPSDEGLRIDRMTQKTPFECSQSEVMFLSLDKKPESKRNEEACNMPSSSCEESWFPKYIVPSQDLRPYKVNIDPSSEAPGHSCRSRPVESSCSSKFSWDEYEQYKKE
In words: IRAK3 biochemical binding assay (LanthaScreen Eu Kinase Binding, TR-FRET). As to the method:
Example B3. IRAK3 Biochemical Binding Assay
The LanthaScreen® Eu Kinase Binding assay was performed as described by the vendor (ThermoFisher Scientific Waltham, MA). Briefly, 100× solutions of compound were prepared in DMSO via serial dilution of the 10 mM stock solution in a 384-well reagent plate using 3-fold intervals to achieve final concentrations. 1 μL of the compound dilution series were added to the corresponding wells of a 384-well reagent plate containing 32.3 μL of 1× buffer (50 mM HEPES pH 7.4, […], 1 mM EGTA, 0.01% Brij-35). 5 μL of the buffer diluted compounds were transferred to the corresponding wells of a 384-well assay plate. 5 μL of 3× tracer was transferred to each well of the assay plate for a final tracer concentration of 10 nM. Finally, 5 μL of the 3×Eu-Anti-GST and IRAK3 mix was transferred to each well for a final concentration of 2 nM and 10 nM respectively. Reactions were allowed to incubate for 1 hour at room temperature. TR-FRET signal of the interaction (λex340/λem 665/λem 615) was read at room temperature with a delay time of 100 ρs and an integration time of 200 ρs using an Envision plate reader. Background corrected emission signal ratios at each compound concentration were used to calculate percentage of inhibition (% Inhibition). Plots of % Inhibition versus inhibitor concentrations were fit according to a dose-response equation (Eq. 1) to generate IC50 and Hill slope values using Dotmatics software (Dotmatics, Bishops Stortford, Hertfordshire, England).
Using these assays, IC50, Dmax, EC50, and DC50 values of the following compounds were determined. Dmax is defined as the maximum percent degradation achieved and DC50 is the concentration at which 50% degradation is achieved.
On the technique in general: TR-FRET usually uses a lanthanide donor and a delayed reading to cut background.

In assay [2] the target is T2, IRAK3-ePL (Homo sapiens, UniProt Q9Y616).
T2 construct: expressed in transfected cells; host or cells: 293T CRBN OE/GSPT1 G575N KI cells, lentiviral transduction, puromycin selected
Kind of assay: IRAK3-ePL overexpressing degradation assay (InCELL Hunter luminescence, dose response). Format: cell-based. To be noted: for IRAK3 ePL degradation Ymin: lowest percentage of target protein remaining following compound treatment; for DC50: read-out: IRAK3 ePL degradation EC50. As to the method: Example B1. IRAK3-ePL Overexpressing Degradation Assay
Stable cell lines were generated by the following protocol. 3×10^5 Lenti-X 293T cells (Clonetech) were plated in 0.8 mL of media in a 12-well plate and incubated overnight at 37° C./5% CO2. Packaging plasmid (0.4 μg, pMD), envelope plasmid (0.4 μg, pSP), and lentiviral transfer IRAK3-ePL plasmid (0.8 μg, TRAK3 sequence NM_007199.3) were mixed in 0.1 mL of Opti-MEM and incubated for 5 min. Simultaneously, 2.4 μL of Lipofectamine 2000 (Invitrogen) was added to 0.1 mL of Opti-MEM (Gibco) and incubated for 5 min. The plasmid DNA and lipofectamine were combined and the mixture was allowed to incubate for 20 min.DNA:Lipofectamine Opti-MEM mixtures were then added to previously plated cells dropwise and the cells were incubated for ~16 h at 37° C./5% CO2. Following incubation, the media was removed and 1.2 mL of fresh media was added per well. Lenti-X 293T cells were incubated for ~30 h at 37° C./5% CO2. […] Following incubation, media was removed from the Lenti-X 293T wells and passed through a […] filter. Part of the viral supernatant was used to transduce cells and the rest was stored at −80° C. Viruses were then added individually (0.5 mL virus) to each well of the 293T^CRBN OE/GSPT1 G575N KI cells, followed by addition of polybrene (10 mg/mL Millipore) to each well at a final concentration of 5.0 μg/mL. Cells were incubated for ~24 h at 37° C./5% CO2. After aspirating media off plates, cells were washed with DPBS, trypsinized and plated in a 10 cm dish in 15 mL of media and […] puromycin. Following incubation of cells for ~72 h at 37° C./5% CO2, media was aspirated off plates, and cells were washed with DPBS and trypsinized. The cells were plated in a 15 cm dish in 40 mL of media with 1.0 μg/mL Puromycin (Gibco) and incubated for ~72 h at 37° C./5% CO2. Following incubation, media was removed and cells were washed with DPBS and trypsinized. The majority of cells were resuspended in Invitrogen freezing media and stored away (~6-8×10^6 cells/vial).
IRAK3-ePL cellular dose response curve degradation assays were performed by the following protocol. Compounds to be tested were dispensed into a white 384-well tissue-culture treated plate using an acoustic liquid handler. Dilutions were prepared based on a 25 μL assay volume in duplicate 10 point 3-fold serial dilutions starting with a 10 μM dose. Negative control wells were included, which only contain 0.2% DMSO to calculate 100% signal. Positive control wells containing 30 μM Ataluren (luciferase inhibitor) were included to calculate the background signal level. All wells were backfilled to a final DMSO concentration of 0.2% to ensure DMSO uniformity across wells. IRAK3-ePL expressing cells (IRAK3-ePL Lenti-X 293T^CRBN/GSPT1 G575N) were washed, trypsinized, counted, and resuspended in fresh DMEM (Gibco) to give a cell concentration of 200,000 cells/mL. 25 μL of cells (5,000 cells/well) were dispensed into the wells of the 384-well plate prespotted with compounds in the previous step and incubated overnight at 37° C./5% CO2. Following incubation, the 384-well plate was taken out of the incubator and left at room temperature for 30 min. InCELL hunter reagent was prepared according to manufacturer's instructions (EA reagent, lysis buffer, and substrate reagent in a 1:1:4 ratio, Cat #96-0002, DiscoverX), which was added to the 384-well plate 25 μL per well. Following the incubation of the plate for 1 h at room temperature, the luminescence signal was read using a ViewLux plate reader. Data was processed and analyzed in ActivityBase software. In short, the average luminescence values of the positive control wells were subtracted from the rest of the wells for background correction, and all luminescence values were normalized to the DMSO control wells. The average value of the DMSO control wells was set to equal 100% of the relative IRAK3-ePL protein levels. […]

pIC50: −log10 of the molar value.

The compound `C[C@@H]1CN(c2ccc(C3CCC(=O)NC3=O)cc2)CCN1CCN1CCC(n2cc(Nc3ncc(C4CC4)n4ccnc34)cn2)CC1` (stereo partly drawn) [Compound 32, 3-(4-((R)-4-(2-(4-(4-((5-cyclopropylimidazo[1,2-a]pyrazin-8-yl)amino)-1H-pyrazol-1-yl)piperidin-1-yl)ethyl)-3-methylpiperazin-1-yl)phenyl) piperidine-2,6-dione] showed a pIC50 in assay [1] of 7.44. In assay [2], the “IRAK3 ePL degradation Ymin” value was 23% and the DC50 stood at 1.4 nM.
Turning to `Cc1cccc(-c2cnc(Nc3cnn(C4CCN(CC(=O)N5CCN(c6ccc(C7CCC(=O)NC7=O)cc6)CC5)CC4)c3)c3nccn23)c1` (stereo not drawn) [Compound 20, 3-(4-(4-(2-(4-(4-((5-(m-tolyl)imidazo[1,2-a]pyrazin-8-yl)amino)-1H-pyrazol-1-yl)piperidin-1-yl)acetyl)piperazin-1-yl)phenyl)piperidine-2,6-dione], the pIC50 in assay [1] was 8.54. In addition, in assay [2], the “IRAK3 ePL degradation Ymin” value is 16% and the DC50 amounted to 0.77 nM.
On to `CS(=O)(=O)c1ccccc1-c1cnc(Nc2cnn(C3CCN(CCN4CCN(c5ccc(C6CCC(=O)NC6=O)cc5)CC4)CC3)c2)c2nccn12` (stereo not drawn) [Compound 83, 3-(4-(4-(2-(4-(4-((5-(2-(methylsulfonyl)phenyl)imidazo[1,2-a]pyrazin-8-yl)amino)-1H-pyrazol-1-yl)piperidin-1-yl)ethyl)piperazin-1-yl)phenyl) piperidine-2,6-dione], for which, in assay [1], the negative logarithm of the IC50 (pIC50) is 5.80. Moreover, in assay [2], the “IRAK3 ePL degradation Ymin” value is 90%.
Consider `Cc1ccc(-c2cnc(Nc3cnn(C4CCN(CCN5CCN(c6ccc(C7CCC(=O)NC7=O)cc6)CC5)CC4)c3)c3nccn23)cc1` (stereo not drawn) [Compound 78, 3-(4-(4-(2-(4-(4-((5-(p-tolyl)imidazo[1,2-a]pyrazin-8-yl)amino)-1H-pyrazol-1-yl)piperidin-1-yl)ethyl)piperazin-1-yl)phenyl) piperidine-2,6-dione], for which the pIC50 in assay [1] was 7.57. In assay [2], the “IRAK3 ePL degradation Ymin” value worked out at 29% and the DC50 came out at 5.5 nM.
The corresponding values for `Cc1ccccc1-c1cnc(Nc2cnn(C3CCN(CCN4CCN(c5ccc(C6CCC(=O)NC6=O)cc5)CC4)CC3)c2)c2nccn12` (stereo not drawn) [Compound 79, 3-(4-(4-(2-(4-(4-((5-(o-tolyl)imidazo[1,2-a]pyrazin-8-yl)amino)-1H-pyrazol-1-yl)piperidin-1-yl)ethyl)piperazin-1-yl)phenyl) piperidine-2,6-dione] are 6.59, 29% and 29 nM.
The compound `CS(=O)(=O)c1cccc(-c2cnc(Nc3cnn(C4CCN(CCN5CCN(c6ccc(C7CCC(=O)NC7=O)cc6)CC5)CC4)c3)c3nccn23)c1` (stereo not drawn) [Compound 86, 3-(4-(4-(2-(4-(4-((5-(3-(methylsulfonyl)phenyl)imidazo[1,2-a]pyrazin-8-yl)amino)-1H-pyrazol-1-yl)piperidin-1-yl)ethyl)piperazin-1-yl)phenyl) piperidine-2,6-dione] showed a pIC50 in assay [1] of 6.42.
On to `Cc1cc(-c2cnc(Nc3cnn([C@@H]4CCCN(CCN5CCN(c6ccc(C7CCC(=O)NC7=O)cc6)CC5)CC4)c3)c3nccn23)c(F)cc1F` (single isomer, unassigned) [Compound 112], for which the pIC50 in assay [1] is 9.32.
`Cn1nc(C2CCC(=O)NC2=O)c2cccc(N3CCN(CCN4CCC(n5cc(Nc6ncc(C7CC7)n7ccnc67)cn5)CC4)CC3)c21` (stereo not drawn) [Compound 113, 3-(7-(4-(2-(4-(4-((5-cyclopropylimidazo[1,2-a]pyrazin-8-yl)amino)-1H-pyrazol-1-yl)piperidin-1-yl)ethyl)piperazin-1-yl)-1-methyl-1H-indazol-3-yl)piperidine-2,6-dione] gave a pIC50 in assay [1] of 8.49.
`Cc1cc(-c2cnc(Nc3cnn(C4CCN(CCN5CCN(c6ccc(-n7ccc(=O)[nH]c7=O)cc6)CC5)CC4)c3)c3nccn23)c(F)cc1F` [Compound 102, 1-(4-(4-(2-(4-(4-((5-(2,4-difluoro-5-methylphenyl)imdazo [1,2-a]pyrazin-8-yl)amino)-1H-pyrazol-1-yl)piperidin-1-yl)ethyl)piperazin-1-yl)phenyl)pyrimidine-2,4(1H,3H)-dione] gave a negative-log IC50 (pIC50) in assay [1] of 9.10. This pIC50 lies 0.61 log units higher than the previous one.
On the same count and under the same terms, the value for `Cc1cc(-c2cnc(Nc3cnn(C4CCN(CCN5CCC(n6cc(C7CCC(=O)NC7=O)cn6)CC5)CC4)c3)c3nccn23)c(F)cc1F` (stereo not drawn) [Compound 109, 3-(1-(1-(2-(4-(4-((5-(2,4-difluoro-5-methylphenyl)imdazo [1,2-a]pyrazin-8-yl)amino)-1H-pyrazol-1-yl)piperidin-1-yl)ethyl)piperidin-4-yl)-1H-pyrazol-4-yl)piperidine-2,6-dione] was 9.59; that for `Cc1cc(-c2cnc(Nc3cnn(C4CCN(CCN5CC6(C5)CN(c5ccc(C7CCC(=O)NC7=O)cc5)C6)CC4)c3)c3nccn23)c(F)cc1F` (stereo not drawn) [Compound 97, 3-(4-(6-(2-(4-(4-((5-(2,4-difluoro-5-methylphenyl)imdazo [1,2-a]pyrazin-8-yl)amino)-1H-pyrazol-1-yl)piperidin-1-yl)ethyl)-2,6-diazaspiro[3.3]heptan-2-yl)phenyl) piperidine-2,6-dione] was 8.89; that for `Cc1cc(-c2ccc(Nc3cnn([C@H]4CC[C@H](CCN5CCN(c6ccc(C7CCC(=O)NC7=O)cc6)CC5)CC4)c3)c3nccn23)c(F)cc1F` (stereo partly drawn) [Compound 108] was 8.59.
